The source of these data is paper PMC12779026, “α-Glycosidase activity of novel coumarin–triazole–coumarin dyads” (Turkish Journal of Chemistry, 2025).

Entries after “also recorded” stand apart in the source; their conditions may differ.

The target of test [1] is α-glycosidase. The test is described as follows: α-Glycosidase inhibitory assay (spectrophotometric, 4-pNPG substrate, 405 nm). Type of test: biochemical. Particulars: 0.5 U/mL α-glycosidase, 5 mM 4-pNPG, phosphate buffer pH 6.9, compounds 5–250 μM. The procedure:
The α-glycosidase inhibitory effects of the compounds were determined as described in the previous study. Acarbose (Sigma-Aldrich, A8980) was used as a reference compound in this study. The compounds were first dissolved in 25 mM DMSO and then diluted to 1 mM with phosphate buffer (0.1 M, pH: 6.9). In brief, the compounds and acarbose in phosphate buffer (0.1 M, pH: 6.9) were added to a 96-well plate at 5–250 μM. Then, 100 μL, 0.5 U/mL α-glycosidase (Sigma-Aldrich, G5003) was added to the wells. After 10 min, 50 μL of 5 mM p-nitrophenyl-α-D-glucopyranoside (4-pNPG) (Sigma-Aldrich, 487506) was added as a substrate to each well. After incubation for 10 min, spectrophotometric measurement was performed at 405 nm. The percentage inhibition rate of the compounds was calculated using the following formula: […]
In this formula, A0 and A1 represent the absorbance of the mixture in the absence and presence of the compound, respectively. In addition, IC50 values, which indicate the […] required to inhibit half of the enzyme activity, were calculated.

The target in test [2] is α-glycosidase. The test is described as follows: Kinetic analysis of α-glycosidase inhibition (Lineweaver–Burk and Dixon plots). Type of test: biochemical. Here is the method: To determine this, the final concentration of α-glycosidase was fixed at 0.5 U/mL. Then, different concentrations of 4-pNPG (2.5–20 mM) and varying concentrations of 4e (20 μM, 40 μM, and 100 μM) showing inhibitory potential were added to the wells. Following incubation, the absorbance values at 405 nm in the presence and absence of the compound were measured in the microplate reader. Lineweaver–Burk and Dixon plots were used to determine the inhibitor type and the inhibitory constant (Ki) of 4e. In the Lineweaver–Burk plot, the y-axis represents 1/V, the inverse of the reaction rate, while the x-axis represents 1/[S], the inverse of the substrate concentration. According to this plot, the points intersecting the y-axis give the value 1/Vmax. From here, the Vmax value, which represents the maximum reaction rate, can be determined. Km, a value indicating the enzyme’s interest in the substrate, can be determined from the points where the line intersects the x-axis. The type of inhibition is then determined by analyzing the changes in Vmax and Km. The Dixon graph is used to calculate the Ki value, which indicates the inhibitory potential of 4e.

A word on the IC50: it is the concentration needed to halve the response being measured. As for `Cc1c(O)ccc2c(Cn3cc(COc4ccc5cc(-c6ccccc6)c(=O)oc5c4)nn3)cc(=O)oc12` [4a, 7-Hydroxy-8-methyl-4-((4-(((2-oxo-3-phenyl-2H-chromen-7-yl)oxy)methyl)-1H-1,2,3-triazol-1-yl)methyl)-2H-chromen-2-one], the IC50 against α-glycosidase [1] is 95 ± 3.55 µM.

At α-glycosidase [1], `Cc1ccc(-c2cc3ccc(OCc4cn(Cc5cc(=O)oc6c(C)c(O)ccc56)nn4)cc3oc2=O)cc1` [4b, 7-Hydroxy-8-methyl-4-((4-(((2-oxo-3-(p-tolyl)-2H-chromen-7-yl)oxy)methyl)-1H-1,2,3-triazol-1-yl)methyl)-2H-chromen-2-one] showed an IC50 of 123 ± 4.2 µM.

At α-glycosidase [1], `COc1ccc(-c2cc3ccc(OCc4cn(Cc5cc(=O)oc6c(C)c(O)ccc56)nn4)cc3oc2=O)cc1` [4c, 7-Hydroxy-4-((4-(((3-(4-methoxyphenyl)-2-oxo-2H-chromen-7-yl)oxy)methyl)-1H-1,2,3-triazol-1-yl)methyl)-8-methyl-2H-chromen-2-one] came in with an IC50 of 109 ± 2.4 µM.

As for `Cc1c(O)ccc2c(Cn3cc(COc4ccc5cc(-c6ccc(F)cc6)c(=O)oc5c4)nn3)cc(=O)oc12` [4d, 4-((4-(((3-(4-Fluorophenyl)-2-oxo-2H-chromen-7-yl)oxy)methyl)-1H-1,2,3-triazol-1-yl)methyl)-7-hydroxy-8-methyl-2H-chromen-2-one], on α-glycosidase [1], the IC50 amounted to 93.5 ± 1.7 µM.

A word on the Ki: it is a measure of affinity in units of concentration, obtained from inhibition or displacement. A low value points to higher affinity. With `Cc1c(O)ccc2c(Cn3cc(COc4ccc5cc(-c6ccc([N+](=O)[O-])cc6)c(=O)oc5c4)nn3)cc(=O)oc12` [4e, 7-Hydroxy-8-methyl-4-((4-(((3-(4-nitrophenyl)-2-oxo-2H-chromen-7-yl)oxy)methyl)-1H-1,2,3-triazol-1-yl)methyl)-2H-chromen-2-one], inhibition on α-glycosidase [1] was half-maximal at 39 ± 0.77 µM (IC50). This molecule showed a Ki at α-glycosidase [2] (Dixon plot) of 19.95 ± 0.15 µM. Moreover, the “Type (of inhibition)” value in the test with α-glycosidase [2] (Lineweaver–Burk plot, 4-pNPG 2.5–20 mM, 4e 20, 40, 100 μM) is on record as “mixed type; also recorded: mixed inhibitor”.

For the molecule `C[C@H]1O[C@H](O[C@H]2[C@H](O)[C@@H](O)[C@@H](O[C@H]3[C@H](O)[C@@H](O)C(O)O[C@@H]3CO)O[C@@H]2CO)[C@H](O)[C@@H](O)[C@@H]1N[C@H]1C=C(CO)[C@@H](O)[C@H](O)[C@H]1O` (some centres unmarked) [Acarbose, reference compound], the IC50 at α-glycosidase [1] worked out at 64.5 ± 2.53 µM.
